Experimental findings from ChEMBL document CHEMBL1201862, “PubChem BioAssay data set” (2004) are described below.

Structures are written as SMILES.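 Exposure lasted 48 hours, with cells grown in 96-well plates and compounds tested at five concentrations. At the GI50, growth is halved.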 Active and inactive are the calls of the source. No stated cut-off is given here; in the data, active = GI50 up to about 1.1 µM and inactive = higher.

Test systems include OVCAR-8; SW-620; HT-29; A498; SK-MEL-28; NCI-H226; EKVX; RXF 393; SNB-75; SN12C; SK-OV-3; SF-268; NCI/ADR-RES; Hs-578T; TK-10; U-251; NCI-H460; CAKI-1; HCC 2998.
What all share (assay): growth of human tumour cells (NCI), 48 h

With `CC(=O)/C(=C\I)c1ccccc1`, the GI50 with OVCAR-8 is 1.82 µM (inactive); in the assay on SW-620, 1.3 µM (inactive); in the assay on HT-29, 0.995 µM (active); in the assay on A498, 17.7 µM (inactive); with SK-MEL-28 it was 3.18 µM (inactive); with NCI-H226 it was 21.2 µM (inactive). For the same molecule, the GI50 with EKVX is 18.6 µM (inactive); in the assay on RXF 393, 1.66 µM (inactive); with SNB-75 it was 3.94 µM (inactive); in the assay with SN12C it was 1.99 µM (inactive); in the assay on SK-OV-3, 13.6 µM (inactive); with SF-268, 7.91 µM (inactive). Moreover, the GI50 is 10 µM (inactive) with NCI/ADR-RES; 3.44 µM (inactive) in the assay on Hs-578T; 13.9 µM (inactive) in the assay with TK-10; 2.26 µM (inactive) with U-251; 11.2 µM (inactive) with NCI-H460.

As to `O=S(=O)(O)c1ccc(-c2nnc(-c3ccccn3)nc2-c2ccc(S(=O)(=O)O)o2)o1`, the GI50 in the assay on OVCAR-8, with SW-620, in the assay with HT-29, in the assay with A498, in the assay on SK-MEL-28 and in the assay on NCI-H226 was > 100 µM (inactive) in each case. In addition, the GI50 in the assay with EKVX, with RXF 393, in the assay on SNB-75, in the assay on SN12C, in the assay on SK-OV-3 and in the assay with CAKI-1 was > 100 µM (inactive) each time. Besides, the GI50 in the assay on SF-268, with NCI/ADR-RES, in the assay on Hs-578T, in the assay on U-251 and in the assay on NCI-H460 was > 100 µM (inactive) throughout.

With `O=[N+]([O-])c1ccc2nc3ccc([N+](=O)[O-])cn3c2c1`, the GI50 is 39 µM (inactive) in the assay on OVCAR-8; > 100 µM (inactive) with SW-620; 83 µM (inactive) with HT-29; 20.7 µM (inactive) in the assay with A498; > 100 µM (inactive) in the assay on SK-MEL-28; > 100 µM (inactive) with NCI-H226. Also, the GI50 with EKVX was 29.4 µM (inactive); with RXF 393 it was 48.9 µM (inactive); in the assay on SNB-75, 43.1 µM (inactive); in the assay on SN12C it was 42.4 µM (inactive); in the assay on SK-OV-3, > 100 µM (inactive); in the assay on CAKI-1, 33 µM (inactive). For the same molecule, the GI50 in the assay with SF-268 is 30.5 µM (inactive); in the assay on NCI/ADR-RES it was > 100 µM (inactive); in the assay with Hs-578T, 27.4 µM (inactive); in the assay on TK-10, 98.6 µM (inactive); in the assay on U-251 it was 36 µM (inactive); in the assay with NCI-H460, 43.3 µM (inactive).

For the molecule `O=C(c1ccccc1)C1C(C(=O)c2ccccc2)N1Cc1ccccc1` (stereo not given), the GI50 with OVCAR-8 was 32.4 µM (inactive); with SW-620, 44.1 µM (inactive); in the assay with HT-29 it was 36.5 µM (inactive); in the assay with A498, 33 µM (inactive); in the assay with SK-MEL-28 it was 32.7 µM (inactive); in the assay with NCI-H226, 32.6 µM (inactive). In addition, the GI50 in the assay on EKVX was 28.3 µM (inactive); with SNB-75, 13.9 µM (inactive); in the assay on SN12C, 21.4 µM (inactive); with SK-OV-3, 27.5 µM (inactive); with CAKI-1, 75.3 µM (inactive); in the assay with SF-268, 37.1 µM (inactive). Besides, the GI50 with HCC 2998 was 48.3 µM (inactive); with NCI/ADR-RES it was 33.5 µM (inactive); with Hs-578T, 32.3 µM (inactive); in the assay with TK-10 it was 46.9 µM (inactive); in the assay with U-251 it was 27.6 µM (inactive); in the assay on NCI-H460, 29.2 µM (inactive).

In the case of `CCOC(=O)c1nc2ccccc2nc1Oc1cc(OC)c(OC)c(OC)c1`, the GI50 with OVCAR-8, in the assay on SW-620, in the assay on HT-29, in the assay on A498, with SK-MEL-28 and with EKVX was > 100 µM (inactive) throughout. The GI50 in the assay with SNB-75 is 44.3 µM (inactive); in the assay on SN12C it was > 100 µM (inactive); in the assay with CAKI-1, 84.5 µM (inactive); with SF-268, > 100 µM (inactive); with HCC 2998 it was > 100 µM (inactive); in the assay with NCI/ADR-RES, > 100 µM (inactive). In addition, the GI50 in the assay with Hs-578T was 27.1 µM (inactive); with TK-10 it was 51.2 µM (inactive); with U-251 it was 32.6 µM (inactive); with NCI-H460 it was > 100 µM (inactive).

As to `COc1ccc(CC(C)NCC(O)c2ccc(O)c(NC=O)c2)cc1` (stereo not given), the GI50 was > 100 µM (inactive) in the assay with OVCAR-8; > 100 µM (inactive) with SW-620; 86.7 µM (inactive) with HT-29; > 100 µM (inactive) with A498; > 100 µM (inactive) in the assay with SK-MEL-28; > 100 µM (inactive) with NCI-H226. Moreover, the GI50 in the assay with EKVX is > 100 µM (inactive); in the assay with RXF 393, > 100 µM (inactive); in the assay with SNB-75, > 100 µM (inactive); in the assay on SN12C it was 20.1 µM (inactive); in the assay on SK-OV-3 it was > 100 µM (inactive); in the assay on CAKI-1 it was 42.2 µM (inactive). For the same molecule, the GI50 in the assay with SF-268, in the assay on NCI/ADR-RES, in the assay on Hs-578T, in the assay with TK-10, in the assay with U-251 and in the assay with NCI-H460 was > 100 µM (inactive) in each case.

Take `O=C(Nc1nncs1)NS(=O)(=O)n1c(=S)sc2ccccc21`: the GI50 in the assay on OVCAR-8 was > 100 µM (inactive); in the assay on SW-620, > 100 µM (inactive); in the assay with HT-29, > 100 µM (inactive); in the assay on A498, > 100 µM (inactive); with SK-MEL-28 it was > 100 µM (inactive); in the assay on EKVX it was 72.6 µM (inactive). Also, the GI50 in the assay with RXF 393, in the assay on SNB-75, in the assay on SN12C, with SK-OV-3, in the assay with CAKI-1 and in the assay on SF-268 was > 100 µM (inactive) throughout. Moreover, the GI50 in the assay on HCC 2998, in the assay with NCI/ADR-RES, in the assay on Hs-578T, in the assay on TK-10, in the assay on U-251 and in the assay on NCI-H460 was > 100 µM (inactive) in each case.

Consider `CCOC(=O)CC1Nc2ccccc2C12CCc1c([nH]c3ccccc13)C2C(=O)OCC` (stereo not given), for which the GI50 was > 100 µM (inactive) with OVCAR-8; 6.87 µM (inactive) with SW-620; 11.6 µM (inactive) with HT-29; 9.42 µM (inactive) in the assay with A498; 35.1 µM (inactive) in the assay on SK-MEL-28; 16.2 µM (inactive) in the assay on EKVX. Also, the GI50 was 5.79 µM (inactive) with RXF 393; 0.0728 µM (active) with SNB-75; 24.7 µM (inactive) in the assay with SN12C; 6.4 µM (inactive) in the assay with SK-OV-3; 6.58 µM (inactive) with CAKI-1; 51.4 µM (inactive) with SF-268. Also, the GI50 is 84.9 µM (inactive) in the assay with HCC 2998; 12.6 µM (inactive) in the assay with NCI/ADR-RES; 8.18 µM (inactive) in the assay on Hs-578T; 32.5 µM (inactive) in the assay with TK-10; 48.5 µM (inactive) in the assay with U-251; 14.2 µM (inactive) in the assay with NCI-H460.
